For one molecule, Ki results are on record in PMC3662962 (Biochemical and biophysical research communications, 2010).

What is called Ki is the dissociation constant of the complex between target and ligand, obtained from inhibition or displacement. A high value points to weaker binding.

The structures appear in SMILES notation.

For the assay, the target named is RsbU phosphatase domain (Mycobacterium tuberculosis, UniProt P9WLZ7). Nature of the assay: biochemical.
RsbU phosphatase domain, sequence (P9WLZ7 190-397): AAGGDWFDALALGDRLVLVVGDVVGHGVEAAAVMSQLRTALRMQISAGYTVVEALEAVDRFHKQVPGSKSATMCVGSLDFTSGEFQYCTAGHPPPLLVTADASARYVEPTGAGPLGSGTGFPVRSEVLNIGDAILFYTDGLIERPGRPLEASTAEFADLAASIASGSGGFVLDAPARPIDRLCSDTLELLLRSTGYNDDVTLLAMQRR

`O=P(O)(O)O` [inorganic phosphate] registered a Ki of 320 nM. In other words, the sub-micromolar range.
